Experimental findings from ChEMBL document CHEMBL1201862, “PubChem BioAssay data set” (2004) are described below.

Activity calls are given as the source filed them. Some results are limits rather than exact numbers.

Broadly, the IC50 is the concentration that inhibits the measured activity by half. Usually GI50 stands for the concentration giving 50% growth inhibition. Usually AC50 stands for the concentration giving half of the maximal activity seen. Usually EC50 stands for the midpoint of the concentration-response curve.

The target of assay [1] is T1, Sentrin-specific protease 7 (Homo sapiens, UniProt Q9BQF6).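 Also: Luminescence-based dose-response confirmation of ultra-high-throughput screening hits, measuring inhibition of SENP7.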
T1 sequence (Q9BQF6 whole entry): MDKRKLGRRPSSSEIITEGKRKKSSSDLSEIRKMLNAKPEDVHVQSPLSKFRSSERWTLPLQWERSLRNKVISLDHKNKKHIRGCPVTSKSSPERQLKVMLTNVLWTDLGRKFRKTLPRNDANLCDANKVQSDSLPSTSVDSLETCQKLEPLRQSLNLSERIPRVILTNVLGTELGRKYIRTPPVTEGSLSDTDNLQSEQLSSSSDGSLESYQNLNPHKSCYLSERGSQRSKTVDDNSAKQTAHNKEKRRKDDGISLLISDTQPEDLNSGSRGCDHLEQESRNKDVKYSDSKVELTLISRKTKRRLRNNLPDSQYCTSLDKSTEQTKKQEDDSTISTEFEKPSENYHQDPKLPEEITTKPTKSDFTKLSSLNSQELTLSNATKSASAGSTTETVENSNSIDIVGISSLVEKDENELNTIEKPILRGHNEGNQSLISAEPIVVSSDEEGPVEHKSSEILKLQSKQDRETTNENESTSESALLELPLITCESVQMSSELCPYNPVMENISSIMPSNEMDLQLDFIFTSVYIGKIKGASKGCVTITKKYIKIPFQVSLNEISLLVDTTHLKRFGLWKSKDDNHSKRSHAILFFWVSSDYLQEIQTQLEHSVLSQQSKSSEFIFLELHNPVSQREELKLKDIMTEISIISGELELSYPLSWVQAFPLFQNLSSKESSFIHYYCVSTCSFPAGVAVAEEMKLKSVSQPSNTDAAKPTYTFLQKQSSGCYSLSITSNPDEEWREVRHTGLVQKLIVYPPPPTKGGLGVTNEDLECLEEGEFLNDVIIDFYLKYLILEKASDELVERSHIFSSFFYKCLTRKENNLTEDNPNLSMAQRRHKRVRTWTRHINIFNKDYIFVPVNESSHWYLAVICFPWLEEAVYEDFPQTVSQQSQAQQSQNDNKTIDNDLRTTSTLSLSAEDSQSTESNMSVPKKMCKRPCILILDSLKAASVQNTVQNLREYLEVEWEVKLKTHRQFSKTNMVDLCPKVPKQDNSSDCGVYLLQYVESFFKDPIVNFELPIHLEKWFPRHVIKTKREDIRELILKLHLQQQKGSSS
Type of assay: functional.

For assay [2], the target named is T2, Sentrin-specific protease 6 (Homo sapiens, UniProt Q9GZR1).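 Also: Luminescence-based dose-response confirmatory assay of SENP6 inhibition, following up an ultra-high-throughput screen.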
T2 sequence (Q9GZR1 whole entry): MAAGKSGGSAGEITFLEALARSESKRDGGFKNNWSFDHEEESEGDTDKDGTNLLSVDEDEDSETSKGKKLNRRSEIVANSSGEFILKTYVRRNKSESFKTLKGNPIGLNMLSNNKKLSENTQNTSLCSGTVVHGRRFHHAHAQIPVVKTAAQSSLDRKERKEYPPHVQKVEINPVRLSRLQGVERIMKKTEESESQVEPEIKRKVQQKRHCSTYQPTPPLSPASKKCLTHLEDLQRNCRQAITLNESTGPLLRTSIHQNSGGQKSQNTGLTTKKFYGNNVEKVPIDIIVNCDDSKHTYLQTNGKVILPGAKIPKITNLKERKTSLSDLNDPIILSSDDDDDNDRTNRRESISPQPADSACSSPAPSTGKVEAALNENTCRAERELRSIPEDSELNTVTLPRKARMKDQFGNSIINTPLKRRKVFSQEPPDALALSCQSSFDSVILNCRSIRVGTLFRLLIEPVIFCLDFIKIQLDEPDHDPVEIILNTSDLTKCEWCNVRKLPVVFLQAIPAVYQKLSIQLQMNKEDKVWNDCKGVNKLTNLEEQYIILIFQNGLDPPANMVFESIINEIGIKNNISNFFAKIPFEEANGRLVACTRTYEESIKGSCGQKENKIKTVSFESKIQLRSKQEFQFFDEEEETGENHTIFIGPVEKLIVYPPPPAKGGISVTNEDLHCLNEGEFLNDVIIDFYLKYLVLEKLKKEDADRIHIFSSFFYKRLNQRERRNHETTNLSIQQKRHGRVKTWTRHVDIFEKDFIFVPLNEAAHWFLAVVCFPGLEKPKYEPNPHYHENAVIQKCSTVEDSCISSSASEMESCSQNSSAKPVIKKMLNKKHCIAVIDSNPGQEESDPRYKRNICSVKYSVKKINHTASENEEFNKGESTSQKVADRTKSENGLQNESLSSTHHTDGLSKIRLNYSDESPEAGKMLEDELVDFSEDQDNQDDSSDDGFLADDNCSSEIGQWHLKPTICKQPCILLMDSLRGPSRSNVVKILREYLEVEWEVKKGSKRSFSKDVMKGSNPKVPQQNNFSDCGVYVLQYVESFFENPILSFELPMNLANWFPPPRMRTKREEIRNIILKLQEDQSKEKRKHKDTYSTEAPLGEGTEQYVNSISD
Type of assay: functional.

For assay [3], the target named is T3, Sentrin-specific protease 8 (Homo sapiens, UniProt Q96LD8).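 Also: luminescence read-out of SENP8 inhibition, dose-response confirmation following an ultra-high-throughput screen.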
T3 sequence (Q96LD8 whole entry): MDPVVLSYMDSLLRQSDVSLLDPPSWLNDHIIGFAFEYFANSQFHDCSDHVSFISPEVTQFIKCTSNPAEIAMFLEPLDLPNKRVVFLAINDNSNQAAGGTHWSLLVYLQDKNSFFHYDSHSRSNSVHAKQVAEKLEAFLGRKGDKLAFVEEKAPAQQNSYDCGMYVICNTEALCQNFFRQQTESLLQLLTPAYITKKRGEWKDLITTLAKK
It is filed as functional.

A further assay has as its target T4, Caspase-3 (Homo sapiens, UniProt P42574).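 Also: Dose-response selectivity test against caspase-3 for candidate inhibitors of sentrin-specific proteases (SENPs).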
T4 sequence (P42574 whole entry): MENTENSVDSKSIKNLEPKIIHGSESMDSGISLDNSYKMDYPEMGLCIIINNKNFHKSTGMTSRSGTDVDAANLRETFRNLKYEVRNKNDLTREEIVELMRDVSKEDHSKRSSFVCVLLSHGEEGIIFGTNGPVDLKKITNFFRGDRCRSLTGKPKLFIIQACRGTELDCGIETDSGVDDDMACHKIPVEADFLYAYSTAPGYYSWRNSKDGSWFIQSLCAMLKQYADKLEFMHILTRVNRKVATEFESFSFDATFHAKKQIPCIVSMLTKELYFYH
Type of assay: functional.

The next assay relates to P388/ADR. As to the kind of experiment: cells. It is filed as functional. Conditions: Mus musculus.
For a further assay, the system named is P388. Nature of the assay: cells. Conditions: Mus musculus. Type of assay: functional.
Another assay has as its system SN12K1. Nature of the assay: cells. It is filed as functional. Conditions: Homo sapiens.
A further assay addresses Cytochrome P450 3A4 (Homo sapiens, UniProt P08684).
Assay [4] in a line: Luminescence Cell-Based Dose Confirmation HTS to Identify Activators of 5'UTR Stem-Loop Driven Alpha-Synuclein mRNA Translation in H4 Neuroglioblastoma Cells. [Related pubchem assays: 1829 (Project Summary), 1814 (Primary HTS)]. It is filed as functional.
Assay [5] is described as follows: Luminescence Cell-Based Dose Response HTS to Identify Activators of Luciferase Translation or Activity in H4 […] Cells. [Related pubchem assays: 1829 (Project Summary), 1814 (Primary HTS)]. Type of assay: functional.
The next assay concerns H4. Nature of the assay: Luminescence Cell-Based Dose Response HTS to Identify Activators of 5'UTR Stem-Loop Driven Prion Protein mRNA Translation in H4 Neuroglioblastoma Cells. [Related pubchem assays: 1829 (Project Summary), 1814 (Primary HTS)]. Type of assay: functional. The settings on record: Homo sapiens.
For assay [6], the target named is T5, Histone-lysine N-methyltransferase NSD2 (Homo sapiens, UniProt O96028).
T5 sequence (O96028 whole entry): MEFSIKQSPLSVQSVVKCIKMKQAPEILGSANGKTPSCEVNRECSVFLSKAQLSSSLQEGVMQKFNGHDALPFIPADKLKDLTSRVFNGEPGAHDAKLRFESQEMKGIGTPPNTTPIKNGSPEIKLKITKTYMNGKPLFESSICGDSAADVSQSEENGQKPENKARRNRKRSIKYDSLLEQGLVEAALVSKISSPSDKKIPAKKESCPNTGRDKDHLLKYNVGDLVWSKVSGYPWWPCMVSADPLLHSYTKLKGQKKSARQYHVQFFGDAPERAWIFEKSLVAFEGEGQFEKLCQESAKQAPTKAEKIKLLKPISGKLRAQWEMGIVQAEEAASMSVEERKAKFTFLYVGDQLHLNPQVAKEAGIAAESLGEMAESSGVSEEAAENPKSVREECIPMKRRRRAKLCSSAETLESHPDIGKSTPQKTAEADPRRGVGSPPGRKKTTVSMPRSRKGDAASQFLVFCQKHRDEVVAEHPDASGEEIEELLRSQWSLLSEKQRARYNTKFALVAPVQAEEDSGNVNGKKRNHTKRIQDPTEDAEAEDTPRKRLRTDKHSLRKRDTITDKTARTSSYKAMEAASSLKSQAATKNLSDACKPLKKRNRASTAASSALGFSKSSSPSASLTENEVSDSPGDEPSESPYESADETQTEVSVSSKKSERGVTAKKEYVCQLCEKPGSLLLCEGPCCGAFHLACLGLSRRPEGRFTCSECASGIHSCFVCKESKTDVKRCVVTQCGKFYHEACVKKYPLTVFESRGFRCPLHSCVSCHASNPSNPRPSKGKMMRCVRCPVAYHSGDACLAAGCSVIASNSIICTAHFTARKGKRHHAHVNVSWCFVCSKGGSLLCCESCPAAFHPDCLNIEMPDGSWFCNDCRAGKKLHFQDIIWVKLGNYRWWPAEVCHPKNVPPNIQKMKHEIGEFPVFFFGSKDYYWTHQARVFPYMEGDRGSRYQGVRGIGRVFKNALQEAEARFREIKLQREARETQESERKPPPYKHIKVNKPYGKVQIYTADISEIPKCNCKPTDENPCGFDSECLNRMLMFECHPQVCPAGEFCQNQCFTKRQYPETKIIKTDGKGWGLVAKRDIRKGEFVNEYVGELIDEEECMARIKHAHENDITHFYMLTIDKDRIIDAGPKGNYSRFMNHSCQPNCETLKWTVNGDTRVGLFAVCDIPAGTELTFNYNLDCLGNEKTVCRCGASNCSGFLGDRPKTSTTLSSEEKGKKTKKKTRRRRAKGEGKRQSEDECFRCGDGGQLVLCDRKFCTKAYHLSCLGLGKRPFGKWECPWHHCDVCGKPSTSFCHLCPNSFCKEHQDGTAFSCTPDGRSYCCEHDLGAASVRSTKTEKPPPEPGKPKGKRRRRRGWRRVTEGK
Type of assay: biochemical.

Chain of Cytochrome P450 3A4 (P08684 whole entry): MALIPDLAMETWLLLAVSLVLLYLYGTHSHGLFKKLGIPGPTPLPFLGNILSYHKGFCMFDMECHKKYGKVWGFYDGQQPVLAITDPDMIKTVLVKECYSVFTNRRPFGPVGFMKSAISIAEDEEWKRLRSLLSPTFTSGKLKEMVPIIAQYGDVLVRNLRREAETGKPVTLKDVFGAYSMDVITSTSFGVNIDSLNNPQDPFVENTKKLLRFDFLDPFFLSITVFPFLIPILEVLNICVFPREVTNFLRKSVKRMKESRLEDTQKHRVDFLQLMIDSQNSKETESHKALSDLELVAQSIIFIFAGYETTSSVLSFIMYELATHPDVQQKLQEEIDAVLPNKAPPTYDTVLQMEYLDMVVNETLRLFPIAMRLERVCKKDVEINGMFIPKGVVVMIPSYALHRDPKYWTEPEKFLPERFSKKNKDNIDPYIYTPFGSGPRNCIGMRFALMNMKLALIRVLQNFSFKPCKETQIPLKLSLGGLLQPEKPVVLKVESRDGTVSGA

`C=C(C)C(O)CC/C(C)=C/Cc1c(O)ccc(C(=O)/C=C/c2ccc(O)cc2)c1O` (centres undefined) [XANTHOANGELOL B]: the IC50 in [1] is 3.39 µM (active); in assay [2] it was 4.22 µM (active); in [3] it was 5.08 µM (active); on Caspase-3, 28.1 µM (active).
As to `C=C1C(=O)O[C@@H]2[C@H]3O[C@]3(C)CCC=C(C)CC[C@@H]12`, the GI50 is 4.84 µM (inactive) in the assay with P388/ADR, 6.59 µM (inactive) in the assay with P388 and 16.4 µM (inactive) with SN12K1. Moreover, the half-maximal activity concentration (AC50) on Cytochrome P450 3A4 was 10 µM (inconclusive).
Consider `O=C(Nc1ccccc1[N+](=O)[O-])C1COc2ccccc2O1` (centres undefined), for which the values for the EC50 (in assay [4]; in assay [5]; with H4) were 0.244 µM (active), > 120 µM (not active) and 6.61 µM (active), respectively.
Taken in the same sequence, the figures for `CCCCN1C(=O)C(=O)N(CC(=O)N2N=C3/C(=C/c4ccco4)CCCC3C2c2ccco2)C1=O` (centres undefined) were > 120 µM (not active), 14.8 µM (active) and 19.6 µM (active).
On the same counts, the results for `COc1ccccc1C(=O)N/N=C(\C)c1ccc(NC(=O)Cc2ccccc2)cc1` are > 120 µM (not active), > 120 µM (not active) and > 120 µM (not active).
On to `NC1=NCN(C2OC(CO)C(O)C2O)C(=O)N1` (centres undefined), for which the GI50 is 10.4 µM (inactive) in the assay with P388/ADR, 8.57 µM (inactive) with P388 and 13.9 µM (inactive) with SN12K1.
In the case of `O=C(c1ccccc1)c1ccc(Cn2cc(-c3ccccc3)nn2)cc1`, the IC50 in [1] is 5.67 µM (active); in assay [2], 19.5 µM (active); in assay [3] it was 23.9 µM (active); at Caspase-3, 32.3 µM (active).
On to `CCC1(O)C(=O)OCc2c1cc1n(c2=O)Cc2cc3cc4c(cc3nc2-1)OCO4` (centres undefined), for which the GI50 with P388/ADR, in the assay with P388 and with SN12K1 was < 0.01 µM (active) throughout.
For `COC1=C(C)C(=O)C2=C(C1=O)C1C3CC4=C(C(=O)C(OC)=C(C)C4=O)C(CNC(=O)C(C)=O)N3C(C#N)C(C2)N1C` (centres undefined), the GI50 in the assay on P388/ADR is 0.0448 µM (active); in the assay on P388, 0.01 µM (active); with SN12K1, < 0.01 µM (active). Further, the AC50 in assay [6] is 8.92 µM (active).
Consider `Cc1ccccc1NS(=O)(=O)c1cccc(C(=O)Nc2cccc(C(=O)O)c2)c1`, for which the IC50 is 9.34 µM (active) in assay [1], 23.3 µM (active) in [2], 23.7 µM (active) in assay [3] and 66.7 µM (active) on Caspase-3.
Take `COc1cc(Cc2nccc3cc(OC)c(OC)cc23)c(C(C)=O)cc1OC`: the figures for the GI50 with P388/ADR, in the assay with P388 and in the assay on SN12K1 were 14.5 µM (inactive), 1.66 µM (inactive) and 20.4 µM (inactive), respectively.
Taken in the same sequence, the figures for `CN(C)/N=N/c1ccc([N+](=O)[O-])cc1C(N)=O` were > 100 µM (inactive), > 100 µM (inactive) and > 100 µM (inactive).
For `CCCn1cc2c3c(cccc31)C1C=C(C)CN(C)C1C2` (centres undefined), the figures for the GI50 in the assay with P388/ADR, in the assay on P388 and in the assay on SN12K1 were 3.34 µM (inactive), 5.69 µM (inactive) and 14.2 µM (inactive), respectively.
